Test results published in patent US8771734B2, “Sustained-release hydrogel preparation” (Medgel Corporation, priority 2003, dated 2014).

Assay: In vitro release experiment (Pt by atomic absorption)
Format: physicochemical
Details: when no interaction with gelatin was created
Experimental: The thus resulting gelatin sheet of 2×2 cm following impregnation of the aqueous CDDP solution (water content: 97%) was placed in 10 ml of a phosphate buffer (PBS, pH 7.4) containing 0.1% Tween80, and shaken in a 37° C. incubator at 60 rpm/min. At a predetermined time, 5 ml of the supernatant was taken out. The same amount of 0.1% Tween80/PBS was immediately added to the sheet and put back in the incubator. Pt concentration in the samples was quantitatively determined three times using an atomic absorption photometer (Hitachi Model Z-8000, Hitachi, Ltd., Tokyo).

In the case of `[NH2][Pt]([NH2])([Cl])[Cl]` [CDDP, cisplatin], the “time until CDDP is entirely released” value is reported as “approximately 3 hrs”.
